In US9290451B2 (Hoffmann-La Roche Inc., priority 2011, dated 2016):
Like-named read-outs stand apart in the source and are kept apart here.

Assays:
human CB2 receptors = human CB2 receptors (Homo sapiens (Human), UniProt P34972); experiment: cAMP assay, CHO cells expressing human CB2 receptors; type: cell-based
In short: (§1)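 CHO cells, KRB buffer + 1 mM IBMX, 30 min 30 °C preincubation; compound 30 min 30 °C; lysis + TR-FRET cAMP detection, 2 h RT; cAMP from standard curve (10 μM–0.13 nM); EC50.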

human CB1 receptors = human CB1 receptors (Homo sapiens (Human), UniProt P21554); experiment: cAMP assay, CHO cells expressing human CB1 receptors; type: cell-based
Chain of human CB1 receptors (P21554 whole entry): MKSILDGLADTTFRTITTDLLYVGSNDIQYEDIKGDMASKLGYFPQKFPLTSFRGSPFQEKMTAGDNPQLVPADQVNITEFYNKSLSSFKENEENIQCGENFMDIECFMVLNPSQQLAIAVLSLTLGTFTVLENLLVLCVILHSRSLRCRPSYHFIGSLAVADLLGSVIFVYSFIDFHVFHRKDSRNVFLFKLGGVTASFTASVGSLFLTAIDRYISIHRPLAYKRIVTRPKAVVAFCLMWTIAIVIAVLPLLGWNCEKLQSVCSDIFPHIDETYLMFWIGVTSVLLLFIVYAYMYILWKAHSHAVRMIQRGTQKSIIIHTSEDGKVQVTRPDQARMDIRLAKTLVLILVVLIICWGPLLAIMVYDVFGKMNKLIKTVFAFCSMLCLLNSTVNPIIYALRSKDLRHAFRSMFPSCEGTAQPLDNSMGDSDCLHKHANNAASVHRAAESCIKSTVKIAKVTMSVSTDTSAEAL
In short: as §1

[1] = CHO cells expressing human CB2, cAMP, read-out: human CB2 EC50
[2] = CHO cells expressing human CB1, cAMP, read-out: human CB1 EC50

Chain of human CB2 receptors (P34972 whole entry): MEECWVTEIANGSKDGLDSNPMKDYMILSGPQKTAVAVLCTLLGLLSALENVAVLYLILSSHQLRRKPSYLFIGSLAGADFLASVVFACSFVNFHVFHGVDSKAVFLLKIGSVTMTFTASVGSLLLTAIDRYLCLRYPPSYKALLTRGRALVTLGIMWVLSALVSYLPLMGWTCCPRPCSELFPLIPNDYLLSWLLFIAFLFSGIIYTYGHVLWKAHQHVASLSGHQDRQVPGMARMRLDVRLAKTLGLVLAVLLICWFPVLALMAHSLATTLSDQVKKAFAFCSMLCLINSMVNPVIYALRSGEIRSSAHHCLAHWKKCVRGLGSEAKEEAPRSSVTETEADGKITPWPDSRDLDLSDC

SMILES | EC50 (human CB2 receptors; [1]) [nM] | EC50 (human CB1 receptors; [2]) [nM] | EC50 (human CB2 receptors) [nM] | EC50 (human CB1 receptors) [nM]
Cc1nc(C(NC(=O)c2ccc(C3CC3)c(OCC3CCOCC3)n2)C2CC2)no1 (centres unmarked) [Example 219, 5-Cyclopropyl-6-(tetrahydro-pyran-4-ylmethoxy)-pyridine-2-carboxylic acid [cyclopropyl-(5-methyl-[1,2,4]oxadiazol-3-yl)-methyl]-amide] | 10.8 | 2140 |  | 
COCCOCC(C)(C)NC(=O)c1ccc(N2CC(F)(F)C2)c(-c2cccc(Cl)c2)n1 [Example 152, 6-(3-Chloro-phenyl)-5-(3,3-difluoro-azetidin-1-yl)-pyridine-2-carboxylic acid [2-(2-methoxy-ethoxy)-1,1-dimethyl-ethyl]-amide] | 442 | > 10000 |  | 
CC(C)(NC(=O)c1ccc(C(F)(F)F)c(OCC2CC2)n1)c1ncco1 [Example 129, 6-Cyclopropylmethoxy-5-trifluoromethyl-pyridine-2-carboxylic acid (1-methyl-1-oxazol-2-yl-ethyl)-amide] | 184 | > 10000 |  | 
Cc1nc(C(C)(C)NC(=O)c2ccc(Cl)c(OCC3CC3)n2)no1 [Example 108, 5-Chloro-6-cyclopropylmethoxy-pyridine-2-carboxylic acid [1-methyl-1-(5-methyl-[1,2,4]oxadiazol-3-yl)-ethyl]-amide] | 190 | > 10000 |  | 
CC(C)C[C@H](NC(=O)c1ccc(C2CC2)c(Oc2ccc(F)cc2)n1)C(N)=O [Example 187, 5-Cyclopropyl-6-(4-fluoro-phenoxy)-pyridine-2-carboxylic acid ((S)-1-carbamoyl-3-methyl-butyl)-amide] | 52.2 | > 10000 |  | 
CC(C)C[C@H](NC(=O)c1ccc(C2CCCO2)c(OCC2CC2)n1)C(N)=O (stereo partly drawn) [Example 115, 6-Cyclopropylmethoxy-5-(tetrahydro-furan-2-yl)-pyridine-2-carboxylic acid ((S)-1-carbamoyl-3-methyl-butyl)-amide] | 6.6 | 953 |  | 
Cc1nc(C(CC(C)C)NC(=O)c2ccc(N3CC(F)(F)C3)c(OCC3CC3)n2)no1 (centres unmarked) [Example 272, 6-Cyclopropylmethoxy-5-(3,3-difluoro-azetidin-1-yl)-pyridine-2-carboxylic acid [3-methyl-1-(5-methyl-[1,2,4]oxadiazol-3-yl)-butyl]-amide] |  |  | 4.3 | > 10000
CNC(=O)[C@H](CC(C)C)NC(=O)c1cccc(-c2ccccc2)n1 [Example 205, (S)-N-(4-Methyl-1-(methylamino)-1-oxopentan-2-yl)-6-phenylpicolinamide] | 57.8 | > 10000 |  | 
CNC(=O)[C@@H](NC(=O)c1ccc(C2CC2)c(OCC2CC2)n1)C(C)(C)C [Example 168, (S)-5-Cyclopropyl-6-(cyclopropylmethoxy)-N-(3,3-dimethyl-1-(methylamino)-1-oxobutan-2-yl)picolinamide] | 0.6 | 313 |  | 
CCOC(=O)C(CC)(CC)NC(=O)c1ccc(C2CC2)c(OCC2CC2)n1 [Example 257, 2-[(5-Cyclopropyl-6-cyclopropylmethoxy-pyridine-2-carbonyl)-amino]-2-ethyl-butyric acid ethyl ester] | 2.3 | 347 |  | 
CNC(=O)[C@H](CC(C)(C)C)NC(=O)c1cccc(Cc2ccc(F)cc2)n1 [Example 286, 6-(4-Fluoro-benzyl)-pyridine-2-carboxylic acid ((S)-3,3-dimethyl-1-methylcarbamoyl-butyl)-amide] | 8.2 | 1870 |  | 
CCC(CC)(NC(=O)c1ccc(N2CCC(F)(F)C2)c(OCC2CC2)n1)C(=O)NC [Example 78, 6-Cyclopropylmethoxy-5-(3,3-difluoro-pyrrolidin-1-yl)-pyridine-2-carboxylic acid (1-ethyl-1-methylcarbamoyl-propyl)-amide] | 4.6 | > 10000 |  | 
Cc1nc([C@@](C)(CC2CC2)NC(=O)c2ccc(C3CC3)c(OCC3CC3)n2)no1 [Example 358, 5-Cyclopropyl-6-cyclopropylmethoxy-pyridine-2-carboxylic acid [(−)-2-cyclopropyl-1-methyl-1-(5-methyl-[1,2,4]oxadiazol-3-yl)-ethyl]-amide] | 4.9 | 489 |  | 
NC(=O)[C@H](CC1CC1)NC(=O)c1ccc(N2CC(F)(F)C2)c(OCC2CC2)n1 [Example 103, 6-Cyclopropylmethoxy-5-(3,3-difluoro-azetidin-1-yl)-pyridine-2-carboxylic acid ((S)-1-carbamoyl-2-cyclopropyl-ethyl)-amide] | 7 | > 10000 |  | 
Cc1nc(C(C)(C)NC(=O)c2ccc(C3CCCO3)c(-c3cccc(Cl)c3)n2)no1 (centres unmarked) [Example 125, 6-(3-Chloro-phenyl)-5-(tetrahydro-furan-2-yl)-pyridine-2-carboxylic acid [1-methyl-1-(5-methyl-[1,2,4]oxadiazol-3-yl)-ethyl]-amide] | 209 | > 10000 |  | 
NC(=O)[C@H](CC1CC1)NC(=O)c1ccc(C2CC2)c(OCC2CC2)n1 [Example 98, 5-Cyclopropyl-6-cyclopropylmethoxy-pyridine-2-carboxylic acid ((S)-1-carbamoyl-2-cyclopropyl-ethyl)-amide] | 27.6 | > 10000 |  | 
Cc1nc([C@@H](NC(=O)c2cccc(-c3ccc(F)c(Cl)c3)n2)C2CC2)no1 [Example 260, 6-(3-Chloro-4-fluoro-phenyl)-pyridine-2-carboxylic acid [(−)-cyclopropyl-(5-methyl-[1,2,4]oxadiazol-3-yl)-methyl]-amide] | 24.9 | > 10000 |  | 
CC(C)C[C@H](NC(=O)c1ccc(N2CC(F)(F)C2)c(-c2cccc(Cl)c2)n1)C(N)=O [Example 140, 6-(3-Chloro-phenyl)-5-(3,3-difluoro-azetidin-1-yl)-pyridine-2-carboxylic acid ((S)-1-carbamoyl-3-methyl-butyl)-amide] | 305 | > 10000 |  | 
Cc1nc(C(C)(C)NC(=O)c2cccc(-c3cccc(Cl)c3)n2)no1 [Example 41, 6-(3-Chloro-phenyl)-pyridine-2-carboxylic acid [1-methyl-1-(5-methyl-[1,2,4]oxadiazol-3-yl)-ethyl]-amide] | 99.9 | > 10000 |  | 
CCC(CC)(NC(=O)c1ccc(C2CC2)c(OCC[C@@H](O)C(F)(F)F)n1)C(=O)NC [Example 314, 5-Cyclopropyl-6-((R)-4,4,4-trifluoro-3-hydroxy-butoxy)-pyridine-2-carboxylic acid (1-ethyl-1-methylcarbamoyl-propyl)-amide] | 16.1 | 1260 |  | 
NC(=O)[C@@H](NC(=O)c1ccc(N2CC(F)(F)C2)c(OCC2CC2)n1)C1CC1 [Example 376, 6-Cyclopropylmethoxy-5-(3,3-difluoro-azetidin-1-yl)-pyridine-2-carboxylic acid ((+)-carbamoyl-cyclopropyl-methyl)-amide] | 59.5 | > 10000 |  | 
Cc1nc(C(C)(C)NC(=O)c2ccc(C3CCOCC3)c(OCC3CC3)n2)no1 [Example 10, 6-Cyclopropylmethoxy-5-(tetrahydro-pyran-4-yl)-pyridine-2-carboxylic acid [1-methyl-1-(5-methyl-[1,2,4]oxadiazol-3-yl)-ethyl]-amide] | 88.3 | > 10000 |  | 
